Laboratory results published in patent US9055743B2, “Alpha, beta-unsaturated imines” (BAYER INTELLECTUAL PROPERTY GMBH, priority 2010, dated 2015).

Experiments:
Assay type in all cases: in vivo
[1] = tested on: Boophilus microplus; assay: Boophilus microplus test (BOOPMI injection); details: 20 μg/animal, injection into the abdomen, after 7 days
Experimental: Boophilus microplus Test (BOOPMI Injection)
(§1) Solvent: Dimethyl Sulphoxide
To produce a suitable preparation of active compound, 10 mg of active compound are mixed with 0.5 ml of solvent and the concentrate is diluted with solvent to the desired concentration. The solution of active compound is injected into the abdomen (Boophilus microplus), and the animals are transferred into dishes and kept in a climatized room. The activity is assessed by […] of fertile eggs.
After 7 days, the effect in % is determined 100% means that none of the ticks has laid any fertile eggs.

[2] = tested on: Boophilus microplus strain Parkhurst, SP-resistant; assay: Boophilus microplus test (DIP); details: 100 ppm, after 7 days
Experimental: Boophilus microplus Test (DIP) Test Animals: Adult Fat Females of the Boophilus microplus Strain Parkhurst—SP-Resistant) Solvent: Dimethyl Sulphoxide
10 mg of active compound are dissolved in 0.5 ml of dimethyl sulphoxide. To produce a suitable formulation, the active compound solution is diluted with water to the particular desired concentration.
This active compound preparation is pipetted into tubes. 8-10 ticks are transferred into a further tube provided with holes. The tube is dipped into the active compound preparation, with all the ticks being wetted completely. After the liquid has run off, the ticks are transferred to filter discs in plastic dishes and kept in a climatized room. After 7 days, the activity is checked for deposition of fertile eggs. Eggs whose fertility is not visible from the outside are kept in glass tubes in a climatized cupboard until the larvae have hatched. An activity of 100% means that no tick has laid fertile eggs.

[3] = tested on: Ctenocephalides felis; assay: Ctenocephalides felis oral test (CTECFE); details: 100 ppm in citrated cattle blood, after two days
Experimental: Ctenocephalides Felis Oral Test (CTECFE)
Solvent: 1 Part by Weight of Dimethyl Sulphoxide
To produce a suitable preparation of active compound, 10 mg of active compound are mixed with 0.5 ml of dimethyl sulphoxide. Part of the concentrate is diluted with citrated cattle blood, and the desired concentration is prepared.
About 20 unfed adult fleas (Ctenocephalides felis) are placed into a chamber which is closed at the top and bottom with gauze. A metal cylinder whose bottom end is closed with parafilm is placed onto the chamber. The cylinder contains the blood/active compound preparation, which can be taken up by the fleas through the parafilm membrane. After two days, the kill in % is determined 100% means that all fleas have been killed; 0% means that none of the fleas have been killed.

[4] = tested on: Lucilia cuprina larvae; assay: Lucilia cuprina test (LUCICU); details: 100 ppm, after 2 days
Experimental: Lucilia cuprina Test (LUCICU)
as §1
To produce a suitable preparation of active compound, 10 mg of active compound are mixed with 0.5 ml of dimethyl sulphoxide and the concentrate is diluted with water to the desired concentration. Vessels containing horsemeat treated with the active compound preparation of the desired concentration are populated with about 20 Lucilia cuprina larvae.
After 2 days, the kill in % is determined. 100% means that all larvae have been killed; 0% means that none of the larvae have been killed.

[5] = tested on: Musca domestica; assay: Musca domestica test (MUSCDO); details: 100 ppm, after 2 days
Experimental: Musca domestica Test (MUSCDO)
as §1
To produce a suitable preparation of active compound, 10 mg of active compound are mixed with 0.5 ml of dimethyl sulphoxide and the concentrate is diluted with water to the desired concentration. Vessels containing a sponge treated with the active compound preparation of the desired concentration are populated with adult Musca domestica.
After 2 days, the kill in % is determined 100% means that all flies have been killed; 0% means that none of the flies have been killed.

[6] = tested on: cat fleas (Ctenocephalides felis, fully sensitive laboratory strain); assay: Contact test against fleas in-vitro (CTECFE contact); details: 500 g/ha, after 48 h
In short: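 Test tubes coated from acetone solutions by rotation, top concentration 500 g/ha (500 μg/dm^2) on tube surface, serial 1:5 dilutions. 10-20 CO2-anesthetized adult fleas held at room temperature for 24 and 48 h. Activity scored versus acetone control: knock-down or death of all fleas = 100%.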

[7] = tested on: larvae of the mustard beetle (Phaedon cochleariae); assay: Phaedon test (PHAECO spray treatment); details: 500 g/ha, spray, after 7 days
In short: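 Mustard beetle larvae were placed on dried Brassica pekinensis leaf discs previously spray-treated with test compound; formulation used acetone and dimethylformamide solvents plus alkylaryl polyglycol ether emulsifier, diluted with emulsifier-containing water.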

[8] = tested on: caterpillars of the army worm (Spodoptera frugiperda); assay: Spodoptera frugiperda test (SPODFR spray treatment); details: 500 g/ha, spray, after 7 days
In short: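 Activity in % read 7 days after armyworm caterpillars were placed on dried, sprayed Zea mays leaf discs; 0% means none killed. Spray prepared from an acetone/DMF concentrate with emulsifier, diluted with emulsifier-containing water.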

[9] = tested on: green peach aphid (Myzus persicae); assay: Myzus test (MYZUPE spray treatment); details: 500 g/ha, spray, after 6 days
In short: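 Activity read as % aphid kill 6 days after treatment (0% = none killed). Compound formulated in acetone and dimethylformamide plus alkylaryl polyglycol ether, diluted in water and sprayed onto infested Brassica pekinensis leaf discs.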

[10] = tested on: greenhouse red spider mite (Tetranychus urticae); assay: Tetranychus test; OP-resistant (TETRUR spray treatment); details: 500 g/ha, spray, after 6 days
In short: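 Activity, as % of mites killed (0–100%), was assessed 6 days after spraying. The spray was compound formulated with acetone, DMF and emulsifier, then diluted in water. It was applied to Phaseolus vulgaris leaf discs carrying every life stage of an OP-resistant spider mite strain.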

[11] = tested on: Anopheles gambiae (homocygus kdr); assay: Anopheles test (ANPHGB surface treatment); details: for knock-down activity: 100 mg/m^2, two hours after contact, exposition 30 minutes
In short: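 Adult mosquitoes held 30 min on a glazed tile treated with a dried 2 mg/ml acetone solution of compound. Mortality scored at 24 h (100% = all killed), knock-down percentage at 2 h post-contact.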

[12] = tested on: Aedes aegypti; assay: Aedes test (AEDSAE surface treatment); details: for knock-down activity: 100 mg/m^2, two hours after contact, exposition 30 minutes
In short: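 Adults were held 30 minutes on glazed tiles carrying a dried acetone deposit of compound (2 mg/ml solution). Readouts: percent knock-down 2 h after contact, percent mortality 24 h after contact, where 0% means no mosquitoes killed.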

Row | Compound | activity (100% = none of the ticks has laid any fertile eggs) [1] [%] | activity (100% = no tick has laid fertile eggs) [2] [%] | activity (kill in %) [3] [%] | activity (kill in %) [4] [%] | activity (kill in %) [5] [%] | activity against cat fleas [6] [%] | activity (beetle larvae killed) [7] [%] | activity (caterpillars killed) [8] [%] | activity (aphids killed) [9] [%] | activity (spider mites killed) [10] [%] | knock-down activity [11] [%] | knock-down activity [12] [%] | pest or weed control at 500 g/ha ([7]; Phaedon cochleariae, 168 h, read-out: activity (beetle larvae killed)) [%] | pest or weed control at 500 g/ha ([8]; Spodoptera frugiperda, 168 h, read-out: activity (caterpillars killed)) [%] | pest or weed control at 500 g/ha ([9]; Myzus persicae, 144 h, read-out: activity (aphids killed)) [%] | pest or weed control at 500 g/ha ([10]; Tetranychus urticae, 144 h, read-out: activity (spider mites killed)) [%] | mortality at 100 mg/m2 ([11]; Anopheles gambiae, read-out: activity (mortality in %)) [%] | mortality at 100 mg/m2 ([12]; Aedes aegypti, read-out: activity (mortality in %)) [%]
1 | Cc1ccc(N=C2C(=CSc3ccc(F)cc3)CCc3sccc32)cc1 (mixture of isomers) [Example 1-26] | 100 | 100 | 95 | 100 | 100 | 100 | 100 | 100 | 100 | 100 | – | – | – | – | – | – | – | –
2 | Cc1ccc(N=C2C(=CSc3ccc(F)cc3)CCc3cc(F)cc(F)c32)cc1 (mixture of isomers) [Example 1-33] | 100 | 100 | 95 | 100 | 80 | 100 | 100 | 100 | 80 | – | – | – | – | – | – | – | – | –
3 | Cc1ccc(N=C2C(=CSc3ccc(F)cc3)CCc3c(F)cccc32)cc1 (mixture of isomers) [Example 1-34] | 100 | 80 | 100 | 100 | – | 100 | 100 | 100 | – | – | 100 | 100 | – | – | – | – | – | –
4 | CCC1C(=CSc2ccc(F)cc2)C(=Nc2ccc(C)cc2)c2ccccc21 (mixture of isomers) [Example 1-37] | 100 | – | 100 | 100 | 90 | 100 | 100 | 100 | 100 | 100 | – | – | – | – | – | – | – | –
5 | Cc1ccc(N=C2/C(=C/Sc3ccccc3)CCc3ccccc32)cc1 [Example 1-1] | 100 | 100 | 80 | 100 | – | 100 | – | – | – | – | 100 | 100 | 100 | 100 | 100 | 100 | 100 | 100
6 | Cc1ccc(N=C2C(=CSc3ccccc3)CSc3ccccc32)cc1 [Example 1-4] | 100 | 100 | 100 | 100 | – | 100 | 100 | 100 | 100 | 100 | 100 | – | – | – | – | – | – | –
7 | COc1ccc(N=C2C(=CSc3ccccc3)CCc3ccccc32)cc1 [Example 1-10] | 100 | – | 80 | 90 | 100 | 100 | 100 | 100 | – | 100 | 95 | – | – | – | – | – | – | –
8 | Cc1ccc(N=C2C(=CSc3ccc(F)cc3)CCc3occc32)cc1 [Example 1-29] | – | 100 | 80 | 100 | 100 | 100 | 100 | 100 | 100 | 100 | – | 90 | – | – | – | – | – | –
9 | Cc1ccc(N=C2C(=CSc3ccc(Cl)cc3)CCc3ccccc32)cc1 [Example 1-59] | 100 | 100 | 100 | 90 | – | 100 | 100 | 100 | 100 | 100 | – | – | – | – | – | – | – | –
10 | Cc1ccc(N=C2C(=CSc3cccc(Cl)c3)CCc3ccccc32)cc1 [Example 1-62] | 100 | 100 | 100 | 80 | – | 100 | 100 | 100 | 100 | 100 | 100 | – | – | – | – | – | – | –
